One block for each compound: values may come before it.
Legend:
Assay type in all cases: biochemical
[1] = target: T1, receptor-interacting protein kinase 2 (RIPK2) (Homo sapiens, UniProt O43353); assay: in vitro enzyme inhibition, % inhibition at […]; conditions: 0.5 µM
R171C RIPK2 [2] = target: T2, R171C RIPK2 (Homo sapiens, UniProt O43353, R171C); assay: in vitro enzyme inhibition, % inhibition at […]; conditions: 5 µM
[3] = target: T1, receptor-interacting protein kinase 2 (RIPK2); assay: in vitro enzyme inhibition, % inhibition at […]; conditions: 5 µM
[4] = target: T1, receptor-interacting protein kinase 2 (RIPK2); assay: in vitro RIPK2 enzyme inhibition
R171C RIPK2 [5] = target: T2, R171C RIPK2; assay: in vitro RIPK2 enzyme inhibition
[6] = target: T1, receptor-interacting protein kinase 2 (RIPK2); assay: X-ray co-crystal structure ([…] Å); in vitro enzyme inhibition IC50
[7] = target: T1, receptor-interacting protein kinase 2 (RIPK2); assay: in vitro enzyme inhibition, % inhibition at […]; conditions: 1 µM
R171C RIPK2 [8] = target: T2, R171C RIPK2; assay: in vitro enzyme inhibition, % inhibition at […]; conditions: 1 µM

T1 sequence (O43353 whole entry): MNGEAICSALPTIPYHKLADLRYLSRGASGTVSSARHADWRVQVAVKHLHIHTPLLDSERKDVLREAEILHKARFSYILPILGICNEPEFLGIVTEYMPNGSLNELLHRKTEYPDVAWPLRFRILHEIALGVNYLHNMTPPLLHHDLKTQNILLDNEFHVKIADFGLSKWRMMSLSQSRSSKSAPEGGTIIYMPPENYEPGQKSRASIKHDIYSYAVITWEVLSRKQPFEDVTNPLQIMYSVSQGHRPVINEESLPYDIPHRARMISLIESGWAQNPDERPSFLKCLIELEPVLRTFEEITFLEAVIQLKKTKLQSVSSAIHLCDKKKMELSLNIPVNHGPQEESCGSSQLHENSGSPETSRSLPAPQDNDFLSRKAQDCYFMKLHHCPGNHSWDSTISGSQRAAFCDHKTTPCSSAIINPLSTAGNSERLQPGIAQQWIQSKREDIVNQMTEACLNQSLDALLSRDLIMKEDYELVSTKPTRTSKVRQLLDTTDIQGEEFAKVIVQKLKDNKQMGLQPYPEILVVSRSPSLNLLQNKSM
T2 sequence (O43353 whole entry R171C): as the sequence (O43353 whole entry) above, with R171C counted along it

Compound: CNC(=O)c1cc(Oc2ccc(NC(=O)Nc3cccc(CC#N)c3)c(F)c2)ccn1 [CSR25]
% Inhibition / RIPK2 WT [1]: 43

Compound: CNC(=O)c1cc(Oc2ccc(NC(=O)Nc3cccc(C(C)(C)C(=O)O)c3)c(F)c2)ccn1 [CSR29]
% Inhibition / R171C RIPK2 (R171C RIPK2 [2]): 67

Compound: CNC(=O)c1cc(Oc2ccc(NC(=O)Nc3cccc(CC(=O)OC)c3)c(F)c2)ccn1 [CSR30]
% Inhibition / RIPK2 WT [3]: 69 | % Inhibition / R171C RIPK2 (R171C RIPK2 [2]): 76

The next lines start with the values.

IC50 [4]: 13.2 ± 1.7 µM
Compound: O=C(O)CSc1ccc(NC(=O)Nc2ccccc2F)cc1F [CSR35F2]

IC50 (R171C RIPK2 [5]): 4.87 ± 0.96 µM | IC50 [6]: 2.26 ± 0.11 µM
Compound: CNC(=O)c1cc(Oc2ccc(NC(=O)Nc3ccc(SCC(=O)O)c(F)c3)c(F)c2)ccn1 [CSR35]

% Inhibition / RIPK2 WT [7]: 94 | % Inhibition / R171C RIPK2 (R171C RIPK2 [8]): 92
Compound: CNC(=O)c1cc(Oc2ccc(NC(=O)Nc3ccc(SCC(=O)OC)c(F)c3)c(F)c2)ccn1 [CSR36]
